In ChEMBL document CHEMBL1201862, “PubChem BioAssay data set” (2004):
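All cell lines were grown in 96-well plates and treated with compound for 48 hours. Abbreviation: GI50, concentration required for 50% inhibition of growth.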 Activity calls are given as the source filed them. Cut-off read from the data, not from the text of the source: active = GI50 up to about 1.1 µM and inactive = higher.

Legend:
Assay in all cases: NCI anticancer screen, dose series, 48 h
RXF 393 = test system: RXF 393
NCI-H226 = test system: NCI-H226
DMS-273 = test system: DMS-273
A549 = test system: A549
A498 = test system: A498
TK-10 = test system: TK-10
Malme-3M = test system: Malme-3M
NCI-H23 = test system: NCI-H23
IGROV-1 = test system: IGROV-1
SK-MEL-28 = test system: SK-MEL-28
DMS-114 = test system: DMS-114
HT-29 = test system: HT-29
MOLT-4 = test system: MOLT-4
U-251 = test system: U-251
HCC 2998 = test system: HCC 2998
SW-620 = test system: SW-620
CCRF-CEM = test system: CCRF-CEM
SK-MEL-5 = test system: SK-MEL-5
NCI-H460 = test system: NCI-H460

SMILES | GI50 (RXF 393) | GI50 (NCI-H226) | GI50 (DMS-273) | GI50 (A549) | GI50 (A498) | GI50 (TK-10) | GI50 (Malme-3M) | GI50 (NCI-H23) | GI50 (IGROV-1) | GI50 (SK-MEL-28) | GI50 (DMS-114) | GI50 (HT-29) | GI50 (MOLT-4) | GI50 (U-251) | GI50 (HCC 2998) | GI50 (SW-620) | GI50 (CCRF-CEM) | GI50 (SK-MEL-5) | GI50 (NCI-H460)
Cc1cc(C)c(C(=O)O)c(N)c1O | > 100 µM (inactive) | > 100 µM (inactive) | > 100 µM (inactive) | > 100 µM (inactive) | > 100 µM (inactive) | > 100 µM (inactive) | > 100 µM (inactive) | > 100 µM (inactive) | > 100 µM (inactive) | > 100 µM (inactive) | > 100 µM (inactive) | > 100 µM (inactive) | > 100 µM (inactive) | > 100 µM (inactive) | > 100 µM (inactive) | > 100 µM (inactive) | > 100 µM (inactive) | > 100 µM (inactive) | 
NC(=O)C(=O)CC(=O)c1ccccc1NC1=CC(=O)C(=O)c2ccccc21 | > 83.4 µM (inactive) | > 73.3 µM (inactive) | 53.1 µM (inactive) | > 100 µM (inactive) | > 100 µM (inactive) | > 100 µM (inactive) | 31.7 µM (inactive) | 31.2 µM (inactive) | > 92.3 µM (inactive) | > 51.1 µM (inactive) | 16.7 µM (inactive) | > 100 µM (inactive) | > 55 µM (inactive) | > 70 µM (inactive) | > 100 µM (inactive) | 43.8 µM (inactive) | 33.9 µM (inactive) | 29.3 µM (inactive) | 98.6 µM (inactive)
Cc1cc(N(CCC#N)CCC#N)ccc1/N=N/c1ccccc1[N+](=O)[O-] | > 100 µM (inactive) | > 100 µM (inactive) | > 100 µM (inactive) | > 100 µM (inactive) | > 100 µM (inactive) | > 100 µM (inactive) | > 100 µM (inactive) | > 100 µM (inactive) | > 100 µM (inactive) | > 100 µM (inactive) | > 100 µM (inactive) | > 100 µM (inactive) | > 100 µM (inactive) | > 100 µM (inactive) | > 100 µM (inactive) | > 100 µM (inactive) | > 100 µM (inactive) | > 100 µM (inactive) | 
COc1cc([C@@H]2c3cc4c(cc3[C@@H](NCc3ccc(C#N)cc3)C3COC(=O)[C@@H]32)OCO4)cc(OC)c1O (some centres not stated) | 2.96 µM (inactive) | 0.283 µM (active) | 0.326 µM (active) | 0.0923 µM (active) | 1.07 µM (active) | 1.84 µM (inactive) | 1.01 µM (active) | 0.317 µM (active) | 1.15 µM (inactive) | 2.33 µM (inactive) | 1.2 µM (inactive) | 1.19 µM (inactive) | 0.0512 µM (active) | 0.123 µM (active) | 1.57 µM (inactive) | 0.766 µM (active) | 0.233 µM (active) | 1.5 µM (inactive) | 0.0344 µM (active)
O=[N+]([O-])c1ccc(Cl)c(C2CC(c3cccc4ccccc34)=Nc3ccccc3[S+]2[O-])c1 (configuration not stated) | 7.05 µM (inactive) | 21.7 µM (inactive) | 19.2 µM (inactive) | 20 µM (inactive) | 24.2 µM (inactive) | 31.8 µM (inactive) | 18.9 µM (inactive) | 8.75 µM (inactive) | 28.2 µM (inactive) | 19.4 µM (inactive) | 14.9 µM (inactive) | 10.9 µM (inactive) | 3.68 µM (inactive) | 13.1 µM (inactive) | 14.8 µM (inactive) | 7.85 µM (inactive) | 2.4 µM (inactive) | 14.4 µM (inactive) | 19.4 µM (inactive)
Oc1cc(-c2cccs2)nc2cc3c(cc12)OCO3 | 1.9 µM (inactive) | 4.32 µM (inactive) | 3.34 µM (inactive) | 4.9 µM (inactive) | 3.17 µM (inactive) | 21.3 µM (inactive) | 3.08 µM (inactive) | 3.78 µM (inactive) | 3.37 µM (inactive) | 9.33 µM (inactive) | 3.93 µM (inactive) | 13.6 µM (inactive) | 4.52 µM (inactive) | 7.43 µM (inactive) | 7.13 µM (inactive) | 3.03 µM (inactive) | 3.66 µM (inactive) | 1.75 µM (inactive) | 3.24 µM (inactive)
COc1cc(C2=NN(C)C(c3ccc([N+](=O)[O-])o3)C2)cc(OC)c1OC (configuration not stated) |  | > 100 µM (inactive) | > 100 µM (inactive) | > 100 µM (inactive) | > 100 µM (inactive) | > 100 µM (inactive) | > 100 µM (inactive) | > 100 µM (inactive) | > 100 µM (inactive) | 79.8 µM (inactive) | 35.6 µM (inactive) | 72.4 µM (inactive) | 24 µM (inactive) | 56.8 µM (inactive) | > 100 µM (inactive) | 11 µM (inactive) | 22.2 µM (inactive) | > 100 µM (inactive) | 41.9 µM (inactive)
COc1ccc2c3c(c(C(=O)O)oc13)C(CCC(=O)O)CC2 (configuration not stated) | > 100 µM (inactive) |  | > 100 µM (inactive) | > 100 µM (inactive) | > 100 µM (inactive) | > 100 µM (inactive) |  | > 100 µM (inactive) | > 100 µM (inactive) | > 100 µM (inactive) | > 100 µM (inactive) | > 100 µM (inactive) |  | > 100 µM (inactive) | > 100 µM (inactive) | > 100 µM (inactive) |  | > 100 µM (inactive) | > 100 µM (inactive)
COc1ccc(OC)c(-c2cc(O)c3cc4c(cc3n2)OCO4)c1 | 2.99 µM (inactive) | 7.38 µM (inactive) | 4.06 µM (inactive) | 5.87 µM (inactive) |  | 11 µM (inactive) | 3.49 µM (inactive) | 3.44 µM (inactive) | 10.5 µM (inactive) | 5.87 µM (inactive) | 3.68 µM (inactive) | 4.12 µM (inactive) | 6.34 µM (inactive) | 7.59 µM (inactive) | 4.67 µM (inactive) | 3.83 µM (inactive) | 4.36 µM (inactive) | 2.98 µM (inactive) | 3.41 µM (inactive)
CCc1cc(Cc2cc(CC)c(NC(=O)C(=O)Cc3ccccn3)c(CC)c2Cl)c(Cl)c(CC)c1NC(=O)C(=O)Cc1ccccn1 |  | > 100 µM (inactive) | > 100 µM (inactive) | > 100 µM (inactive) | > 100 µM (inactive) | > 100 µM (inactive) | > 100 µM (inactive) | > 100 µM (inactive) | > 100 µM (inactive) | > 100 µM (inactive) | 96.8 µM (inactive) | 70 µM (inactive) | > 100 µM (inactive) | 19.4 µM (inactive) | > 100 µM (inactive) | 15.7 µM (inactive) | > 100 µM (inactive) | > 100 µM (inactive) | > 100 µM (inactive)
CS(=O)(=O)OCCn1cnc2nc(NC(=O)c3ccccc3)[nH]c(=O)c21 | > 100 µM (inactive) | > 100 µM (inactive) | > 100 µM (inactive) | > 100 µM (inactive) | > 100 µM (inactive) | > 100 µM (inactive) | > 100 µM (inactive) |  | > 100 µM (inactive) | > 100 µM (inactive) | > 100 µM (inactive) | > 100 µM (inactive) |  | > 100 µM (inactive) |  | > 100 µM (inactive) | > 100 µM (inactive) | > 100 µM (inactive) | > 100 µM (inactive)
CCOCc1cc(=O)c2cc3c(cc2o1)OC(C)(C)CC3 | > 100 µM (inactive) | > 100 µM (inactive) | 48.5 µM (inactive) | > 100 µM (inactive) | > 100 µM (inactive) | > 100 µM (inactive) | > 100 µM (inactive) | > 100 µM (inactive) | > 100 µM (inactive) |  | 62.7 µM (inactive) | > 100 µM (inactive) | 55.5 µM (inactive) | > 100 µM (inactive) | > 100 µM (inactive) | > 100 µM (inactive) | > 100 µM (inactive) | 56.6 µM (inactive) | > 100 µM (inactive)
CCOC(=O)/C(C#N)=C/c1[nH]c(C)c(C)c1C | > 100 µM (inactive) | > 100 µM (inactive) | > 100 µM (inactive) | > 100 µM (inactive) | > 100 µM (inactive) | > 100 µM (inactive) | > 100 µM (inactive) | > 100 µM (inactive) | > 100 µM (inactive) |  | > 100 µM (inactive) | > 100 µM (inactive) | > 100 µM (inactive) | > 100 µM (inactive) | > 100 µM (inactive) | > 100 µM (inactive) | > 100 µM (inactive) | > 100 µM (inactive) | > 100 µM (inactive)
COc1ccc(OC)c(NC(=O)CCC/C(CC(=O)c2ccc(O)c(OC)c2)=N\Nc2nnc(C)n2N)c1 |  | > 100 µM (inactive) | > 100 µM (inactive) | > 100 µM (inactive) | > 100 µM (inactive) | > 100 µM (inactive) | > 100 µM (inactive) | > 100 µM (inactive) | > 100 µM (inactive) | > 100 µM (inactive) | 95.7 µM (inactive) | > 100 µM (inactive) | > 100 µM (inactive) | > 100 µM (inactive) | > 100 µM (inactive) | > 100 µM (inactive) | > 100 µM (inactive) | > 100 µM (inactive) | > 100 µM (inactive)
CCCCCCCCCCCCCC(=O)OC1CC(=O)OC1CO (configuration not stated) | > 100 µM (inactive) |  | > 100 µM (inactive) | 55.1 µM (inactive) | 77.6 µM (inactive) | > 100 µM (inactive) | > 100 µM (inactive) |  | 41 µM (inactive) |  | 35.7 µM (inactive) | 32.1 µM (inactive) | 25.1 µM (inactive) | 53.6 µM (inactive) | 60.3 µM (inactive) | 71.6 µM (inactive) | 25.5 µM (inactive) | 91.8 µM (inactive) | 34.2 µM (inactive)
